Tests used:
[1] = tested on: Wnt activity (SW480 colon carcinoma cells stably expressing the Sp5-Luc reporter gene); experiment: Sp5-Luc reporter gene screening assay for Wnt activity in SW480 cells; format: cell-based; conditions: Homo sapiens, 42 h incubation, luminescence
Description: The screening assay for Wnt activity is described as follows. Reporter cell lines can be generated by stably transducing cancer cell lines (e.g., colon cancer) or primary cells (e.g., IEC-6 intestinal cells) with a lentiviral construct that includes a Wnt-responsive promoter driving expression of the firefly luciferase gene.
SW480 colon carcinoma cells were transduced with a lentiviral vector expressing luciferase with a human Sp5 promoter consisting of a sequence of eight TCF/LEF binding sites. SW480 cells stably expressing the Sp5-Luc reporter gene and a hygromycin resistance gene were selected by treatment with 150 μg/ml of hygromycin for 7 days. These stably transduced SW480 cells were expanded in cell culture and used for all further screening activities. For Sp5-Luc reporter gene assays, the cells were plated at 10,000 cells/well in 96-well plates with growth medium containing 10% fetal calf serum and incubated overnight at 37° C. and 5% CO2. Each compound was dissolved in DMSO as a 10 mM stock in standard j-vials and used to prepare compound source plates in dose-response format with 3-fold serial dilutions and a 10 mM top concentration. Compound transfer from serially diluted source plates to assay plates containing the cells was accomplished using a pintool (Multimek 96, Beckman equipped with V&P Scientific FP1S50H pins) based liquid handling protocol. This protocol used a slotted pin to transfer 50 nl of compound from a source plate well to an assay plate well containing 50 μl of cells in growth medium. […] Control wells received 50 nl of DMSO treatment for normalization and calculating IC50 values. The treated cells were incubated at 37° C. and 5% CO2 for an additional forty-two hours. Following incubation, the growth medium was removed and 50 μl of BrightGlo luminescence reagent (Promega) was added to each well of the 96-well assay plates. The plates were placed on an orbital shaker for 5 min and then luminescence was quantified on the Victor3 (Perkin Elmer) plate reader. Readings were normalized to DMSO only treated cells, and normalized activities were utilized for IC50 calculations using the dose-response log (inhibitor) vs. response—variable slope (four parameters) nonlinear regression feature available in GraphPad Prism 5.0 or 6.0.

[2] = tested on: primary human fibroblasts derived from IPF patients (LL29 cells); experiment: Inhibition of fibrosis (αSMA) in TGF-β1 treated primary human fibroblasts from IPF patients; format: cell-based; conditions: Fibroblast, 96 h, TGF-β1 20 ng/mL, 4 days, % αSMA positive cells
Description: The above synthesized compounds were screened using primary human fibroblasts (derived from IPF patients) treated with TGF-β1 to determine their ability to inhibit the fibrotic process.
Primary human fibroblasts derived from IPF patients (LL29 cells) [^1Xiaoqiu Liu, et.al., “Fibrotic Lung Fibroblasts Show Blunted Inhibition by cAMP Due to Deficient cAMP Response Element-Binding Protein Phosphorylation”, Journal of Pharmacology and Experimental Therapeutics (2005), 315(2), 678-687; ^2Watts, K. L., et.al., “RhoA signaling modulates cyclin D1 expression in human lung fibroblasts; implications for idiopathic pulmonary fibrosis”, Respiratory Research (2006), 7(1), 88] were obtained from American Type Culture Collection (ATCC) and expanded in F12 medium supplemented with 15% Fetal Bovine Serum and Penicillin/Streptomycin.
Each compound was dissolved in DMSO as a 10 mM stock and used to prepare compound source plates. Serial dilution (1:2, 11-point dose-response curves from 10 μM to 1.87 nM) and compound transfer was performed using the ECHO 550 (Labcyte, Sunnyvale, Calif.) into 384-well clear bottom assay plates (Greiner Bio-One) with appropriate DMSO backfill for a final DMSO concentration of 0.1%. LL29 cells were plated at 1,500 cells/well in 80 μl/well F12 medium supplemented with 1% Fetal Bovine Serum. One hour after addition of the cells, TGF-β1 (Peprotech; 20 ng/mL) was added to the plates to induce fibrosis (ref. 1 and 2 above). Wells treated with TGF-β1 and containing DMSO were used as controls. Cells were incubated at 37° C. and 5% CO2 for 4 days. Following incubation for 4 days, SYTOX green nucleic acid stain (Life Technologies [Thermo Fisher Scientific]) was added to the wells at a final concentration of 1 uM and incubated at room temperature for 30 min. Cells were then fixed using 4% formaldehyde (Electron Microscopy Sciences), washed 3 times with PBS followed by blocking and permeabilization using 3% Bovine Serum Albumin (BSA; Sigma) and 0.3% Triton X-100 (Sigma) in PBS. Cells were then stained with antibody specific to α-smooth muscle actin (αSMA; Abcam) (ref. 1 and 2 above) in 3% Bovine Serum Albumin (BSA; Sigma) and 0.3% Triton X-100 (Sigma) in PBS, and incubated overnight at 4° C. Cells were then washed 3 times with PBS, followed by incubation with Alexa Flor-647 conjugated secondary antibody (Life Technologies [Thermo Fisher Scientific]) and DAPI at room temperature for 1 hour. Cells were then washed 3 times with PBS and plates were sealed for imaging. αSMA staining was imaged by excitation at 630 nm and emission at 665 nm and quantified using the Compartmental Analysis program on the CellInsight CX5 (Thermo Scientific). Dead or apoptotic cells were excluded from analysis based on positive SYTOX green staining. % of total cells positive for αSMA were counted in each well and normalized to the average of 11 wells treated with TGF-β1 on the same plate using Dotmatics' Studies Software. The normalized averages (fold change over untreated) of 3 replicate wells for each compound concentration were used to create dose-responses curves and EC50 values were calculated using non-linear regression curve fit in the Dotmatics' Studies Software. The EC50 values are reported.

SMILES	IC50 [1] [nM]	EC50 [2] [nM]
c1ccc(CNCc2cncc(-c3ccc4[nH]nc(-c5nc6c(-c7cccnc7)ccnc6[nH]5)c4c3)c2)cc1 [Compound 101, N-Benzyl-1-(5-(3-(7-(pyridin-3-yl)-3H-imidazo[4,5-b]pyridin-2-yl)-1H-indazol-5-yl)pyridin-3-yl)methanamine]	> 10000	0.235
CCNCc1cncc(-c2ccc3[nH]nc(-c4nc5c(-c6ccccn6)ccnc5[nH]4)c3c2)c1 [Compound 136, N-((5-(3-(7-(Pyridin-2-yl)-3H-imidazo[4,5-b]pyridin-2-yl)-1H-indazol-5-yl)pyridin-3-yl)methyl)ethanamine]	1550	1.77
O=C(Nc1cncc(-c2ccc3[nH]nc(-c4nc5c(-c6ccccn6)ccnc5[nH]4)c3c2)c1)c1ccccc1 [Compound 141, N-(5-(3-(7-(Pyridin-2-yl)-3H-imidazo[4,5-b]pyridin-2-yl)-1H-indazol-5-yl)pyridin-3-yl)benzamide]	13.7	9.99
O=C(Nc1cncc(-c2ccc3[nH]nc(-c4nc5c(-c6ccccn6)ccnc5[nH]4)c3c2)c1)C1CCC1 [Compound 150, N-(5-(3-(7-(Pyridin-2-yl)-3H-imidazo[4,5-b]pyridin-2-yl)-1H-indazol-5-yl)pyridin-3-yl)cyclobutanecarboxamide]	15	0.133
c1ccc(-c2ccnc3[nH]c(-c4n[nH]c5ccc(-c6cncc(CNCC7CCCC7)c6)cc45)nc23)nc1 [Compound 154, 1-Cyclopentyl-N-((5-(3-(7-(pyridin-2-yl)-3H-imidazo[4,5-b]pyridin-2-yl)-1H-indazol-5-yl)pyridin-3-yl)methyl)methanamine]	1460	9.99
CCC(=O)Nc1cncc(-c2ccc3[nH]nc(-c4nc5c(N6CCCCC6)ccnc5[nH]4)c3c2)c1 [Compound 157, N-(5-(3-(7-(Piperidin-1-yl)-3H-imidazo[4,5-b]pyridin-2-yl)-1H-indazol-5-yl)pyridin-3-yl)propionamide]	15	0.605
CN(C)c1cncc(-c2ccc3[nH]nc(-c4nc5c(N6CCCCC6)ccnc5[nH]4)c3c2)c1 [Compound 163, N,N-Dimethyl-5-(3-(7-(piperidin-1-yl)-3H-imidazo[4,5-b]pyridin-2-yl)-1H-indazol-5-yl)pyridin-3-amine]	122	0.009
CN(C)Cc1cncc(-c2ccc3[nH]nc(-c4nc5c(N6CCCCC6)ccnc5[nH]4)c3c2)c1 [Compound 169, N,N-Dimethyl-1-(5-(3-(7-(piperidin-1-yl)-3H-imidazo[4,5-b]pyridin-2-yl)-1H-indazol-5-yl)pyridin-3-yl)methanamine]	1450	0.396
O=C(Nc1cncc(-c2ccc3[nH]nc(-c4nc5c(N6CCCCC6)ccnc5[nH]4)c3c2)c1)C1CC1 [Compound 175, N-(5-(3-(7-(Piperidin-1-yl)-3H-imidazo[4,5-b]pyridin-2-yl)-1H-indazol-5-yl)pyridin-3-yl)cyclopropanecarboxamide]	99.3	9.99
FC1(F)CCN(Cc2cncc(-c3ccc4[nH]nc(-c5nc6c(N7CCCCC7)ccnc6[nH]5)c4c3)c2)C1 [Compound 181, 2-(5-(5-((3,3-Difluoropyrrolidin-1-yl)methyl)pyridin-3-yl)-1H-indazol-3-yl)-7-(piperidin-1-yl)-3H-imidazo[4,5-b]pyridine]	2580	0.009
Cc1cn(-c2ccnc3[nH]c(-c4n[nH]c5ccc(-c6cncc(NC(=O)C(C)(C)C)c6)cc45)nc23)cn1 [Compound 190, N-(5-(3-(7-(4-Methyl-1H-imidazol-1-yl)-3H-imidazo[4,5-b]pyridin-2-yl)-1H-indazol-5-yl)pyridin-3-yl)pivalamide]	7.4	0.009
Cc1cn(-c2ccnc3[nH]c(-c4n[nH]c5ccc(-c6cncc(NC(=O)C7CCC7)c6)cc45)nc23)cn1 [Compound 202, N-(5-(3-(7-(4-Methyl-1H-imidazol-1-yl)-3H-imidazo[4,5-b]pyridin-2-yl)-1H-indazol-5-yl)pyridin-3-yl)cyclobutanecarboxamide]	4.7	0.018
CC(C)C(=O)Nc1cncc(-c2ccc3[nH]nc(-c4nc5c(N6CCN(C)CC6)ccnc5[nH]4)c3c2)c1 [Compound 217, N-(5-(3-(7-(4-Methylpiperazin-1-yl)-3H-imidazo[4,5-b]pyridin-2-yl)-1H-indazol-5-yl)pyridin-3-yl)isobutyramide]	173	2.83
CN1CCN(c2ccnc3[nH]c(-c4n[nH]c5ccc(-c6cncc(CN7CCCCC7)c6)cc45)nc23)CC1 [Compound 223, 7-(4-Methylpiperazin-1-yl)-2-(5-(5-(piperidin-1-ylmethyl)pyridin-3-yl)-1H-indazol-3-yl)-3H-imidazo[4,5-b]pyridine]	3070	0.009
CN1CCN(c2ccnc3[nH]c(-c4n[nH]c5ccc(-c6cncc(NC(=O)C7CCCC7)c6)cc45)nc23)CC1 [Compound 229, N-(5-(3-(7-(4-Methylpiperazin-1-yl)-3H-imidazo[4,5-b]pyridin-2-yl)-1H-indazol-5-yl)pyridin-3-yl)cyclopentanecarboxamide]	284	1.07
CN1CCN(c2ccnc3[nH]c(-c4n[nH]c5ccc(-c6cncnc6)cc45)nc23)CC1 [Compound 234, 7-(4-Methylpiperazin-1-yl)-2-(5-(pyrimidin-5-yl)-1H-indazol-3-yl)-3H-imidazo[4,5-b]pyridine]	795	0.434
c1cncc(-c2ccc3[nH]nc(-c4nc5cccnc5[nH]4)c3c2)c1 [Compound 238, 2-(5-(Pyridin-3-yl)-1H-indazol-3-yl)-3H-imidazo[4,5-b]pyridine]	28.8	0.013
Cc1ccncc1-c1ccc2[nH]nc(-c3nc4cccnc4[nH]3)c2c1 [Compound 239, 2-(5-(4-Methylpyridin-3-yl)-1H-indazol-3-yl)-3H-imidazo[4,5-b]pyridine]	4100	0.171
CN(C)Cc1cncc(-c2ccc3[nH]nc(-c4nc5cccnc5[nH]4)c3c2)c1 [Compound 247, 1-(5-(3-(3H-Imidazo[4,5-b]pyridin-2-yl)-1H-indazol-5-yl)pyridin-3-yl)-N,N-dimethylmethanamine]	77	0.184
CC(C)(C)CC(=O)Nc1cncc(-c2ccc3[nH]nc(-c4nc5cccnc5[nH]4)c3c2)c1 [Compound 250, N-(5-(3-(3H-Imidazo[4,5-b]pyridin-2-yl)-1H-indazol-5-yl)pyridin-3-yl)-3,3-dimethylbutanamide]	124	2.6

Reference: patent US10280166B2, “2-(1H-indazol-3-yl)-3H-imidazo[4,5-B]pyridine and therapeutic uses thereof” (Samumed, LLC, priority 2014, dated 2019)
